{"source": "patent US10227344B2", "about": "“CK2 inhibitors, compositions and methods thereof” (Polaris Pharmaceuticals, Inc., priority 2016, dated 2019)", "type_in_all_cases": "cell-based", "key": {"SKOV-3": {"system": "SKOV-3", "assay": "Cancer cell panel, cell viability (resazurin): Ovarian, SKOV-3", "settings": "SKOV-3 (Ovarian), 72 hours; labelled drug combined with Example 3"}, "A549": {"system": "A549", "assay": "Cancer cell panel, cell viability (resazurin): NSCLC, A549", "settings": "72 hours, labelled drug combined with Example 3"}, "DLD-1": {"system": "DLD-1", "assay": "Cancer cell panel, cell viability (resazurin): Colon, DLD-1", "settings": "DLD-1 (Colon), 72 hours; labelled drug combined with Example 3"}, "H2122": {"system": "H2122", "assay": "Cancer cell panel, cell viability (resazurin): NSCLC, H2122", "settings": "72 hours, labelled drug combined with Example 3"}, "Daudi": {"system": "Daudi", "assay": "Cancer cell panel, cell viability (resazurin): Burkitt's Lymphoma, Daudi", "settings": "72 hours, labelled drug combined with Example 3", "method": "(§1) Cells were plated in 96-well plates and treated for 72 hours with a serially diluted CK2 inhibitor or anti-cancer drug or their combination. The suspension cell lines were treated right after plating, while the adherent cells were allowed to attach overnight prior to the start of the treatment.\n(§2) Cell viability was determined by adding resazurin to cell cultures and measuring fluorescence with a plate reader. Relative cell viability was calculated by dividing the cell viability signal from a test sample by that of a non-treated control. […] Bliss Independence and Highest Single Agent models were used to determine if there is synergy, additivity or antagonism between the CK2 inhibitor and an anti-cancer drug."}, "BT-474": {"system": "BT-474", "assay": "Cancer cell panel, cell viability (resazurin): Breast, BT-474", "settings": "BT-474 (Breast), 72 hours; labelled drug combined with Example 3"}, "HL60": {"system": "HL60", "assay": "Cancer cell panel, cell viability (resazurin): Leukemia, HL60", "settings": "72 hours, labelled drug combined with Example 3"}, "A375": {"system": "A375", "assay": "Cancer cell panel, cell viability (resazurin): Melanoma, A375", "settings": "72 hours, labelled drug combined with Example 3"}, "SkBr-3": {"system": "SkBr-3", "assay": "Cancer cell panel, cell viability (resazurin): Breast, SkBr-3", "settings": "SkBr-3 (Breast), 72 hours; labelled drug combined with Example 3", "method": "as §1, §2"}, "WM-115": {"system": "WM-115", "assay": "Cancer cell panel, cell viability (resazurin): Melanoma, WM-115", "settings": "WM-115 (Melanoma), 72 hours; labelled drug combined with Example 3"}, "K562": {"system": "K562", "assay": "Cancer cell panel, cell viability (resazurin): Leukemia, K562", "settings": "72 hours, labelled drug combined with Example 3"}, "BxPC3": {"system": "BxPC3", "assay": "Cancer cell panel, cell viability (resazurin): Pancreatic, BxPC3", "settings": "72 hours, labelled drug combined with Example 3"}, "OVCAR-3": {"system": "OVCAR-3", "assay": "Cancer cell panel, cell viability (resazurin): Ovarian, OVCAR-3", "settings": "OVCAR-3 (Ovarian), 72 hours; labelled drug combined with Example 3"}, "BT-20": {"system": "BT-20", "assay": "Cancer cell panel, cell viability (resazurin): Breast, BT-20", "settings": "BT-20 (Breast), 72 hours; labelled drug combined with Example 3", "method": "as §1, §2"}, "SK-MEL-24": {"system": "SK-MEL-24", "assay": "Cancer cell panel, cell viability (resazurin): Melanoma, SK-MEL-24", "settings": "SK-MEL-24 (Melanoma), 72 hours; labelled drug combined with Example 3", "method": "as §1, §2"}, "LoVo": {"system": "LoVo", "assay": "Cancer cell panel, cell viability (resazurin): Colon, LoVo", "settings": "72 hours, labelled drug combined with Example 3"}, "HCT116": {"system": "HCT116", "assay": "Cancer cell panel, cell viability (resazurin): Colon, HCT116", "settings": "72 hours, labelled drug combined with Example 3"}, "Colo205": {"system": "Colo205", "assay": "Cancer cell panel, cell viability (resazurin): Colon, Colo205", "settings": "72 hours, labelled drug combined with Example 3"}, "ZR-75-1": {"system": "ZR-75-1", "assay": "Cancer cell panel, cell viability (resazurin): Breast, ZR-75-1", "settings": "ZR-75-1 (Breast), 72 hours; labelled drug combined with Example 3"}, "H460": {"system": "H460", "assay": "Cancer cell panel, cell viability (resazurin): NSCLC, H460", "settings": "72 hours, labelled drug combined with Example 3"}, "H23": {"system": "H23", "assay": "Cancer cell panel, cell viability (resazurin): NSCLC, H23", "settings": "72 hours, labelled drug combined with Example 3"}, "MDA-MB-231": {"system": "MDA-MB-231", "assay": "Cancer cell panel, cell viability (resazurin): Breast, MDA-MB-231", "settings": "MDA-MB-231 (Breast), 72 hours; labelled drug combined with Example 3"}, "Caov-3": {"system": "Caov-3", "assay": "Cancer cell panel, cell viability (resazurin): Ovarian, Caov-3", "settings": "Caov-3 (Ovarian), 72 hours; labelled drug combined with Example 3"}, "EOL-1": {"system": "EOL-1", "assay": "Cancer cell panel, cell viability (resazurin): Leukemia, EOL-1", "settings": "EOL-1 (Leukemia), 72 hours; labelled drug combined with Example 3"}, "MDA-MB-157": {"system": "MDA-MB-157", "assay": "Cancer cell panel, cell viability (resazurin): Breast, MDA-MB-157", "settings": "MDA-MB-157 (Breast), 72 hours; labelled drug combined with Example 3"}, "RPMI8226": {"system": "RPMI8226", "assay": "Cancer cell panel, cell viability (resazurin): multiple myeloma, RPMI8226", "settings": "72 hours, labelled drug combined with Example 3"}, "H1299": {"system": "H1299", "assay": "Cancer cell panel, cell viability (resazurin): NSCLC, H1299", "settings": "72 hours, labelled drug combined with Example 3"}, "H1975": {"system": "H1975", "assay": "Cancer cell panel, cell viability (resazurin): NSCLC, H1975", "settings": "72 hours, labelled drug combined with Example 3"}, "HT29": {"system": "HT29", "assay": "Cancer cell panel, cell viability (resazurin): Colon, HT29", "settings": "72 hours, labelled drug combined with Example 3", "method": "as §1, §2"}, "MDA-MB-453": {"system": "MDA-MB-453", "assay": "Cancer cell panel, cell viability (resazurin): Breast, MDA-MB-453", "settings": "MDA-MB-453 (Breast), 72 hours; labelled drug combined with Example 3", "method": "as §1, §2"}, "SK-MEL-3": {"system": "SK-MEL-3", "assay": "Cancer cell panel, cell viability (resazurin): Melanoma, SK-MEL-3", "settings": "SK-MEL-3 (Melanoma), 72 hours; labelled drug combined with Example 3"}, "T47D": {"system": "T47D", "assay": "Cancer cell panel, cell viability (resazurin): Breast, T47D", "settings": "72 hours, labelled drug combined with Example 3", "method": "as §1, §2"}, "Raji": {"system": "Raji", "assay": "Cancer cell panel, cell viability (resazurin): Burkitt's Lymphoma, Raji", "settings": "72 hours, labelled drug combined with Example 3"}}, "data": [{"smiles": "CC(=O)O[C@H]1C(=O)[C@@]2(C)[C@H]([C@H](OC(=O)c3ccccc3)[C@]3(O)C[C@H](OC(=O)[C@H](O)[C@@H](NC(=O)c4ccccc4)c4ccccc4)C(C)=C1C3(C)C)[C@]1(OC(C)=O)CO[C@@H]1C[C@@H]2O", "note": "[Paclitaxel, paclitaxel]", "values": [{"measurement": "synergy, additivity or antagonism of the combination of Example 3 with the anti-cancer drug", "setting": "SKOV-3", "result": "+ (Additive relative to each agent alone (CI = 0.9-1 by Bliss Independence Model and <0.9 by Highest Single Agent Model))"}, {"measurement": "synergy, additivity or antagonism of the combination of Example 3 with the anti-cancer drug", "setting": "A549", "result": "+ (Additive relative to each agent alone (CI = 0.9-1 by Bliss Independence Model and <0.9 by Highest Single Agent Model))"}, {"measurement": "synergy, additivity or antagonism of the combination of Example 3 with the anti-cancer drug", "setting": "DLD-1", "result": "+ + + (Synergy relative to each agent alone (CI = 0.4-0.74 by Bliss Independence Model))"}, {"measurement": "synergy, additivity or antagonism of the combination of Example 3 with the anti-cancer drug", "setting": "H2122", "result": "+ (Additive relative to each agent alone (CI = 0.9-1 by Bliss Independence Model and <0.9 by Highest Single Agent Model))"}, {"measurement": "synergy, additivity or antagonism of the combination of Example 3 with the anti-cancer drug", "setting": "Daudi", "result": "+ (Additive relative to each agent alone (CI = 0.9-1 by Bliss Independence Model and <0.9 by Highest Single Agent Model))"}, {"measurement": "synergy, additivity or antagonism of the combination of Example 3 with the anti-cancer drug", "setting": "BT-474", "result": "+ (Additive relative to each agent alone (CI = 0.9-1 by Bliss Independence Model and <0.9 by Highest Single Agent Model))"}, {"measurement": "synergy, additivity or antagonism of the combination of Example 3 with the anti-cancer drug", "setting": "HL60", "result": "+ + (Slight synergy relative to each agent alone (CI = 0.75-0.9 by Bliss Independence Model))"}, {"measurement": "synergy, additivity or antagonism of the combination of Example 3 with the anti-cancer drug", "setting": "A375", "result": "+ (Additive relative to each agent alone (CI = 0.9-1 by Bliss Independence Model and <0.9 by Highest Single Agent Model))"}, {"measurement": "synergy, additivity or antagonism of the combination of Example 3 with the anti-cancer drug", "setting": "SkBr-3", "result": "+ (Additive relative to each agent alone (CI = 0.9-1 by Bliss Independence Model and <0.9 by Highest Single Agent Model))"}, {"measurement": "synergy, additivity or antagonism of the combination of Example 3 with the anti-cancer drug", "setting": "WM-115", "result": "+ (Additive relative to each agent alone (CI = 0.9-1 by Bliss Independence Model and <0.9 by Highest Single Agent Model))"}, {"measurement": "synergy, additivity or antagonism of the combination of Example 3 with the anti-cancer drug", "setting": "K562", "result": "+ (Additive relative to each agent alone (CI = 0.9-1 by Bliss Independence Model and <0.9 by Highest Single Agent Model))"}, {"measurement": "synergy, additivity or antagonism of the combination of Example 3 with the anti-cancer drug", "setting": "BxPC3", "result": "+ + (Slight synergy relative to each agent alone (CI = 0.75-0.9 by Bliss Independence Model))"}, {"measurement": "synergy, additivity or antagonism of the combination of Example 3 with the anti-cancer drug", "setting": "OVCAR-3", "result": "+ (Additive relative to each agent alone (CI = 0.9-1 by Bliss Independence Model and <0.9 by Highest Single Agent Model))"}, {"measurement": "synergy, additivity or antagonism of the combination of Example 3 with the anti-cancer drug", "setting": "BT-20", "result": "+ + (Slight synergy relative to each agent alone (CI = 0.75-0.9 by Bliss Independence Model))"}, {"measurement": "synergy, additivity or antagonism of the combination of Example 3 with the anti-cancer drug", "setting": "SK-MEL-24", "result": "+ (Additive relative to each agent alone (CI = 0.9-1 by Bliss Independence Model and <0.9 by Highest Single Agent Model))"}, {"measurement": "synergy, additivity or antagonism of the combination of Example 3 with the anti-cancer drug", "setting": "LoVo", "result": "+ (Additive relative to each agent alone (CI = 0.9-1 by Bliss Independence Model and <0.9 by Highest Single Agent Model))"}, {"measurement": "synergy, additivity or antagonism of the combination of Example 3 with the anti-cancer drug", "setting": "HCT116", "result": "+ (Additive relative to each agent alone (CI = 0.9-1 by Bliss Independence Model and <0.9 by Highest Single Agent Model))"}, {"measurement": "synergy, additivity or antagonism of the combination of Example 3 with the anti-cancer drug", "setting": "Colo205", "result": "+ + + (Synergy relative to each agent alone (CI = 0.4-0.74 by Bliss Independence Model))"}, {"measurement": "synergy, additivity or antagonism of the combination of Example 3 with the anti-cancer drug", "setting": "ZR-75-1", "result": "+ (Additive relative to each agent alone (CI = 0.9-1 by Bliss Independence Model and <0.9 by Highest Single Agent Model))"}, {"measurement": "synergy, additivity or antagonism of the combination of Example 3 with the anti-cancer drug", "setting": "H460", "result": "+ + (Slight synergy relative to each agent alone (CI = 0.75-0.9 by Bliss Independence Model))"}, {"measurement": "synergy, additivity or antagonism of the combination of Example 3 with the anti-cancer drug", "setting": "H23", "result": "+ + (Slight synergy relative to each agent alone (CI = 0.75-0.9 by Bliss Independence Model))"}, {"measurement": "synergy, additivity or antagonism of the combination of Example 3 with the anti-cancer drug", "setting": "MDA-MB-231", "result": "+ (Additive relative to each agent alone (CI = 0.9-1 by Bliss Independence Model and <0.9 by Highest Single Agent Model))"}, {"measurement": "synergy, additivity or antagonism of the combination of Example 3 with the anti-cancer drug", "setting": "Caov-3", "result": "+ (Additive relative to each agent alone (CI = 0.9-1 by Bliss Independence Model and <0.9 by Highest Single Agent Model))"}, {"measurement": "synergy, additivity or antagonism of the combination of Example 3 with the anti-cancer drug", "setting": "EOL-1", "result": "+ (Additive relative to each agent alone (CI = 0.9-1 by Bliss Independence Model and <0.9 by Highest Single Agent Model))"}, {"measurement": "synergy, additivity or antagonism of the combination of Example 3 with the anti-cancer drug", "setting": "MDA-MB-157", "result": "+ (Additive relative to each agent alone (CI = 0.9-1 by Bliss Independence Model and <0.9 by Highest Single Agent Model))"}, {"measurement": "synergy, additivity or antagonism of the combination of Example 3 with the anti-cancer drug", "setting": "RPMI8226", "result": "+ (Additive relative to each agent alone (CI = 0.9-1 by Bliss Independence Model and <0.9 by Highest Single Agent Model))"}, {"measurement": "synergy, additivity or antagonism of the combination of Example 3 with the anti-cancer drug", "setting": "H1299", "result": "+ (Additive relative to each agent alone (CI = 0.9-1 by Bliss Independence Model and <0.9 by Highest Single Agent Model))"}, {"measurement": "synergy, additivity or antagonism of the combination of Example 3 with the anti-cancer drug", "setting": "H1975", "result": "+ (Additive relative to each agent alone (CI = 0.9-1 by Bliss Independence Model and <0.9 by Highest Single Agent Model))"}, {"measurement": "synergy, additivity or antagonism of the combination of Example 3 with the anti-cancer drug", "setting": "HT29", "result": "+ (Additive relative to each agent alone (CI = 0.9-1 by Bliss Independence Model and <0.9 by Highest Single Agent Model))"}, {"measurement": "synergy, additivity or antagonism of the combination of Example 3 with the anti-cancer drug", "setting": "MDA-MB-453", "result": "+ (Additive relative to each agent alone (CI = 0.9-1 by Bliss Independence Model and <0.9 by Highest Single Agent Model))"}, {"measurement": "synergy, additivity or antagonism of the combination of Example 3 with the anti-cancer drug", "setting": "SK-MEL-3", "result": "+ (Additive relative to each agent alone (CI = 0.9-1 by Bliss Independence Model and <0.9 by Highest Single Agent Model))"}, {"measurement": "synergy, additivity or antagonism of the combination of Example 3 with the anti-cancer drug", "setting": "T47D", "result": "+ (Additive relative to each agent alone (CI = 0.9-1 by Bliss Independence Model and <0.9 by Highest Single Agent Model))"}, {"measurement": "synergy, additivity or antagonism of the combination of Example 3 with the anti-cancer drug", "setting": "Raji", "result": "+ + (Slight synergy relative to each agent alone (CI = 0.75-0.9 by Bliss Independence Model))"}]}]}
